Data reported in patent publication US10927086B2, “Substituted sulfoximine compounds as indoleamine 2,3-dioxygenase (IDO) inhibitors” (Merck Sharp & Dohme Corp., priority 2017, dated 2021).

Key:
IDO1 [1] = molecular target: T1, IDO1 (Homo sapiens (Human), UniProt P14902); assay: IDO1 Cellular Assay in Hela Cells Stimulated with IFNγ; type: cell-based; conditions: about 48 hours, read-out: IDO1 HELA Cell Assay, IC50
Description: Hela cells were cultured in complete Hela culture medium (90% EMEM, 10% heat-inactivated fetal bovine serum) and expanded to about 1×10^9 cells. The cells were then collected and frozen down at 10×10^6 cells/vial in 1 mL frozen medium (90% complete Hela culture medium, 10% DMSO)
Compounds to be tested were serially diluted in ten 3-fold steps in DMSO starting from 10 mM DMSO stocks in Echo low volume plate(s). Compound dilutions or DMSO alone were then dispensed from the dilution plate(s) into Greiner black 384-well assay plate(s) (catalog #781086, 50 nL/well) using an Echo 550 acoustic liquid handler (Labcyte).
Frozen Hela cells were thawed and transferred into Hela assay medium (99% complete Hela culture medium, 1% Pen/Strep) with 20 mL medium/vial of cells. The cells were spun down at 250 g in a table top centrifuge for 5 min and suspended in same volume of Hela assay medium. The cells were then counted and adjusted to a density of 2×10^5 cells/ml in Hela assay medium. Sterile L-tryptophan were added to the cells with final concentration of 300 uM L-tryptophan. A small aliquot (2 mL/plate) of Hela cells were set aside and were not treated with IFNγ, to serve as the Max-E control. The rest of Hela cells were added with sterile IFNγ (Cat #285-IF, R & D systems) with a final concentration of 100 ng/mL.
Hela cells with and without IFNγ were dispensed to the respective wells of 384-well assay plates containing the compounds. The plates were incubated for about 48 hours at a 37° C., 5% CO2 incubator. Afterwards, 12 μL of 0.5 M methyl isonipecotate in dimethyl sulfoxide were added into each well and the plates were sealed and incubated at 37° C. without CO2 overnight. The plates were centrifuged for 1 min at 200×g. The resulting fluorescence was measured in a Spectramax plate reader (Molecular Devices) with a 400 nm excitation filter and a 510 nm emission filter.
The fluorescence intensity of each well was corrected for the background observed in wells with non-IFNγ-treated cells and was expressed as a fraction of the intensity observed in wells of IFNγ-treated cells and DMSO only. Potencies were calculated by linear least squares fit to the four parameter logistic IC50 equation.
Target sequence in this assay (P14902 whole entry): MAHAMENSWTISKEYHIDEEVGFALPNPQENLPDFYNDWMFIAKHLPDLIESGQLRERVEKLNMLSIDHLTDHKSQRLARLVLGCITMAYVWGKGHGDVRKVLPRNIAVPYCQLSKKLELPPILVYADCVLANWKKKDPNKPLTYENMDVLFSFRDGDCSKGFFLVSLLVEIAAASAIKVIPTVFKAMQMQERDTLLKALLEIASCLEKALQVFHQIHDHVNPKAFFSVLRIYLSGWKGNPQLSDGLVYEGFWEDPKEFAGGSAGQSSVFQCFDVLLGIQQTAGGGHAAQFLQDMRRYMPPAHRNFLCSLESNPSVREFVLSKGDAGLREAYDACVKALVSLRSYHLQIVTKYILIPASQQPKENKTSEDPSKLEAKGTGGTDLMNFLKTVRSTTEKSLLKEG

IDO1 [2] = molecular target: T1, IDO1; assay: IDO1 Enzyme Assay; type: biochemical; conditions: HIS-tagged recombinant IDO1, fluorescence readout
Description: Compounds to be tested were serially diluted in ten 3-fold steps in DMSO starting from 10 mM DMSO stocks. Compound dilutions or DMSO alone were then dispensed from the dilution plate into a Greiner black 384-well assay plate (catalog #781086) using an Echo 555 acoustic liquid handler (Labcyte).
HIS-tagged IDO1 protein was recombinantly expressed in Escherichia coli using ZYP5052 autoinduction media supplemented with 500 μM delta aminolevulinic acid for 48 h at 16° C. IDO1 protein was purified using Ni^2+-affinity resin and size exclusion chromatography. Purified protein was then diluted in assay buffer (50 mM Tris pH 7.0, 1% glycerol, 20 μM methylene blue, 0.05% Tween-20, 20 mM sodium ascorbate, 100 units/mL catalase to obtain a final IDO1 concentration of 40 nM. IDO1 solution […] or buffer alone ([…]) were dispensed to wells of the assay plate using a BioRAPTR liquid dispenser (Beckman Coulter). Assay plates containing compound and IDO1 enzyme were incubated at RT for 30 min. Afterwards, 10 μL of 400 μM tryptophan in assay buffer were added to each well of the assay plate using a BioRAPTR liquid dispenser. Plates were incubated at RT for 60 min and reactions were quenched by addition of 10 μL of 0.5 M methyl isonipecotate in dimethyl sulfoxide. Plates were sealed and incubated at 37° C. for 4 h or 50° C. for 2 h. The plates are allowed to cool and then centrifuged for 1 min at 1000×g. The resulting fluoresence was measured in an Envision plate reader (Perkin Elmer) with a 400/25 nm excitation filter and an 510/20 nm emission filter.
Potencies were calculated by linear least squares fit to the four parameter logistic IC50 equation.
Target sequence in this assay (P14902 whole entry, species assumed): as the sequence (P14902 whole entry) above

IDO1 [3] = molecular target: T1, IDO1; assay: IDO1 Human Whole Blood Assay; type: cell-based; conditions: LPS and IFNγ, 18 h, kynurenine by LC/MS/MS
Description: Compounds to be tested were serially diluted in ten 3-fold steps in DMSO starting from 10 mM. 3 μL of compound dilutions or DMSO alone were then dispensed from the dilution plate into a polypropylene 96-well assay plate containing 97 μL of RPMI using an Echo 555 acoustic liquid handler (Labcyte). LPS and IFNγ was prepared in RPMI to a 10λ of final conc. (1000 ng/mL), final concentration is 100 ng/mL.
Human whole blood was drawn in sodium heparin coated tubes from healthy internal donors. Two hundred forty μL of blood was transferred to each of the wells of a v-bottom 96 well plate. Thirty μL of compound was transferred from intermediate dilution plate, and incubated for 15 min. […] from stimulants was then transferred to blood and mixed thoroughly. Plate was covered with breathable membrane and incubated at 37° C. for overnight (18 h).
On day 2 isotope labeled standard of kynurenine and tryptophan was made in water at 10× concentration and 30 μL was added to the blood at 3 μM final concentration. The assay plates were centrifuged at 300×G for 10 min with no brake to separate plasma from red blood cells. Sixty μL of plasma samples was removed without disturbing red blood cells.
Plasma was diluted with RPMI in 1:1 ratio and proteins were precipitated out with two volume of Acetonitrile. The plates was centrifuged at 4000×G for 60 min. Twenty μL of supernatant was carefully transferred to a 384 well plate contain 40 μL of 0.1% formic acid in water and analyzed by LC/MS/MS.
LC/MS/MS analyses were performed using Thermo Fisher's LX4-TSQ Quantum Ultra system. This system consists of four Agilent binary high-performance liquid chromatography (HPLC) pumps and a TSQ Quantum Ultra triple quadruple MS/MS instrument. For each sample, 5 μL were injected onto an Atlantis T3 column (2.1 mm×150 mm, 3 μm particle size) from Waters. The mobile phase gradient pumped at 0.8 mL/min was used to elute the analytes from the column at 25° C. The elution started at 0% B increasing linearly to 25% B at 6.5 min, holding at 25% for 1 min, re-equilibrating to 10 min. Mobile phase A consisted of 0.1% formic acid in water. Mobile phase B consisted of 0.1% of formic acid in acetonitrile. Data was acquired in positive mode using a HESI interface. The operational parameters for the TSQ Quantum Ultra instrument were a spray voltage of 4000 V, capillary temperature of 380° C., vaporizer temperature 400° C., shealth gas 60 arbitrary units, Aux gas 20 arbitrary units, tube lens 85 and collision gas 1.2 mTorr. SRM chromatograms of kynurenine (QI: 209.2>Q3:94.0) and internal standard (Q1: 215.3>Q3:98.2) were collected for 90 sec. The peak area was integrated by Xcalibur Quan software. The ratios between the kynurenine generated in the reaction and 2D6-Kynurenine spiked-in internal standard were used to generate percentage inhibition and IC50 values. Compounds were titrated and IC50's were calculated by 4 parameter sigmoidal curve fitting formula.
Target sequence in this assay (P14902 whole entry): as above

SMILES	IC50 (IDO1 [1]) [nM]	IC50 (IDO1 [2]) [nM]	IC50 (IDO1 [3]) [nM]
N=S1(=O)CC(CNc2nonc2/C(=N/O)N[C@H]2Cc3ccc(F)cc32)C1 (single isomer, unassigned) [Example 5]	168	102	412
C[S@](=N)(=O)CCNc1nonc1/C(=N/O)N[C@H]1Cc2ccc(F)cc21 [Example 1, N—((S)-4-fluorobicyclo[4.2.0]octa-1(6),2,4-trien-7-yl)-N′-hydroxy-4-((2-((S)—S-methylsulfonimidoyl)ethyl)amino)-1,2,5-oxadiazole-3-carboximidamide]	55.8	86	427
N=S1(=O)CC(Nc2nonc2/C(=N/O)N[C@H]2Cc3ccc(F)cc32)C1 (single isomer, unassigned) [Example 4]	162	90.6	1890
CS(=O)(/C=C/Nc1nonc1/C(=N/O)N[C@H]1Cc2ccc(F)cc21)=NC#N (stereo partly drawn) [Example 15, 4-(((E)-2-(N-cyano-S-methylsulfonimidoyl)vinyl)amino)-N-((S)-4-fluorobicyclo[4.2.0]octa-1(6),2,4-trien-7-yl)-N′-hydroxy-1,2,5-oxadiazole-3-carboximidamide]	20.1	165	869
N=S1(=O)CC(CNc2nonc2/C(=N/O)N[C@H]2Cc3ccc(F)cc32)C1 (single isomer, unassigned) [Example 6]	92.1	51	494
CS(=O)(CCNc1nonc1/C(=N/O)N[C@H]1Cc2ccc(F)cc21)=NC(N)=O (stereo partly drawn) [Example 16, 4-((2-(N-carbamoyl-S-methylsulfonimidoyl)ethyl)amino)-N-((S)-4-fluorobicyclo[4.2.0]octa-1,3,5-trien-7-yl)-N′-hydroxy-1,2,5-oxadiazole-3-carboximidamide]	69.2	55.1	843
C[S@@](=N)(=O)CCNc1nonc1/C(=N/O)N[C@H]1Cc2ccc(F)cc21 [Example 2, N—((S)-4-fluorobicyclo[4.2.0]octa-1(6),2,4-trien-7-yl)-N′-hydroxy-4-((2-((R)—S-methylsulfonimidoyl)ethyl)amino)-1,2,5-oxadiazole-3-carboximidamide]	60.9	88.1	386
N=S1(=O)CC(Nc2nonc2/C(=N/O)N[C@H]2Cc3ccc(F)cc32)C1 (single isomer, unassigned) [Example 3]	110	120	1800

Further lines, results first:

IC50 (IDO1 [1]) [nM]	IC50 (IDO1 [2]) [nM]	IC50 (IDO1 [3]) [nM]	SMILES
53.7	64.7	173	CS(=O)(CCNc1nonc1/C(=N/O)N[C@H]1Cc2ccc(F)cc21)=NC#N (stereo partly drawn) [Example 17, 4-((2-(N-cyano-S-methylsulfonimidoyl)ethyl)amino)-N-((S)-4-fluorobicyclo[4.2.0]octa-1(6),2,4-trien-7-yl)-N′-hydroxy-1,2,5-oxadiazole-3-carboximidamide]
148	85.7	1640	CS(=N)(=O)N1CC(O)(CNc2nonc2/C(=N/O)N[C@H]2Cc3ccc(F)cc32)C1 (single isomer, unassigned) [Example 36]
73	98	1200	CS(=N)(=O)N1CCO[C@@H](CNc2nonc2/C(=N\O)N[C@@H]2Cc3ccc(F)cc32)C1 (single isomer, unassigned) [Example 63]
117	94	224	CS(=N)(=O)N1CC(Oc2nonc2/C(=N/O)N[C@H]2Cc3ccc(F)cc32)C1 (single isomer, unassigned) [Example 41]
